Source: US20170198318A1, “METHOD OF MANUFACTURING METHOXY-ISOFLAVONES BY BIOTRANSFORMATION AND USE THEREOF” (NATIONAL UNIVERSITY OF TAINAN, priority 2016, published 2017)

How the values were obtained:
[1] = system: Mouse B16 melanoma cells (4A5); experiment: Melanin content / inhibition of melanogenesis in IBMX-stimulated B16 cells; assay type: cell-based
Description: (§1) The ranges of non-toxic concentrations of the compounds toward the B16 cells was first determined with the 3-(4,5-dimethylthiazol-2-yl)-2,5-diphenyltetrazolium bromide (MTT) method. Mouse B16 melanoma cells (4A5) was purchased from the Bioresources Collection and Research Center (BCRC, Food Industry Research and Development Institute, Hsinchu, Taiwan). Determinations of cell viability and melanin content were performed as previously reported [Appl. Microbiol. Biotechnol. 2007; 73:1169-1172] and described briefly below. Dulbecco's modified Eagle's medium (DMEM) containing 10% (v/v) fetal bovine serum was used to cultivate mouse B16 cells, which were incubated at 37° C. in a humidified, CO2-controlled (5%) incubator. After 1 day of incubation, the cells were treated with tested drugs in the presence of a melanogenesis stimulation agent (400 μM of 3-isobutyl-1-methylxanthine (IBMX)) for another 2 days. Then, the drug-treated cells were harvested and the cell viability and melanin content were measured according to the previous study [Curr. Pharma. Biotechnol. 2015; 16:1085-1093]. In this experiment, cells only treated with IBXM is used as a negative control and cells treated with 20 μM danazol is used as a positive control.
The X axis includes different treatment conditions, and the Y axis of the results represents cell survival rate or relative melanin content. Both of the cell survival rate and the relative melanin content are expressed as percentage of control (% of control). […] Accordingly, the 25 μM was used as the maximum concentration in the determination of the inhibition of melanogenesis.
Pharm. Res. 2010; 33:1959-19].

[2] = system: Mouse B16 melanoma cells (4A5); experiment: Cell viability (MTT method) in B16 cells; assay type: cell-based; settings: under a concentration of 25 μM, with 400 μM IBMX, 2 days
Description: as §1, with “In this experiment, cells only treated with IBXM is used as a negative control and cells treated with 20 μM danazol is used as a positive control.” left out
The X axis includes different treatment conditions, and the Y axis of the results represents cell survival rate or relative melanin content. Both of the cell survival rate and the relative melanin content are expressed as percentage of control (% of control). […]

melanogenesis = settings: Arch. Pharm. Res. 2010; cited from earlier work
[3] = non-toxic concentrations, 400 μM IBMX, 2 days

| Structure (SMILES) | inhibition of melanogenesis ([1]; 6.25 μM and 25 μM, compared with the control group) | activity at 25 µM ([1]; Mus musculus, 48 h, 25 μM, 400 μM IBMX, 2 days, read-out: melanin content (% of control)) | inhibition of melanogenesis compared with positive control danazol ([1]; danazol 20 μM) | inhibition of melanogenesis [1, 3] | inhibition of melanogenesis ([1]; non-toxic concentrations, 400 μM IBMX, 2 days, listed as 7,4′-dihydroxy-8-methoxy-isoflavone) | cytotoxicity (cell survival rate) [2] | melanogenesis inhibition (previously identified) (melanogenesis) |
| --- | --- | --- | --- | --- | --- | --- | --- |
| COc1c(O)ccc2c(=O)c(-c3ccc(O)cc3)coc12 [compound (1), 7,4′-dihydroxy-8-methoxy-isoflavone] | show inhibition of melanogenesis | 63.5% | greater than that produced by danazol | dose-dependently inhibited melanogenesis | inhibitory effect on melanogenesis | did not exhibit cytotoxicity | – |
| C#C[C@]1(O)CC[C@H]2[C@@H]3CCC4=Cc5oncc5C[C@]4(C)[C@H]3CC[C@@]21C [danazol] | – | – | – | – | – | – | potent melanogenesis inhibitor |
| COc1ccc2c(=O)c(-c3ccc(O)cc3)coc2c1O [compound (2), 8,4′-dihydroxy-7-methoxy-isoflavone] | – | – | – | dose-dependently inhibited melanogenesis | – | did not exhibit cytotoxicity | – |
